Measured values taken from patent US7550624B2, “Pharmaceutically active salts and esters of 1-dimethylamino-3-(3-methoxyphenyl)-2-methylpentan-3-ol and 3- (3-dimethylamino-1-ethyl-1-hydroxy-2-methylpropyl)-phenol and methods of using same” (Gruenenthal GmbH, priority 2002, dated 2009).
Marks after values point to notes of the source that are not given here.

System: female Sprague-Dawley rats
Test: Cystometry tests on conscious fresh rats
Format: in vivo, rat
Conditions: for effect on the bladder regulation (in words): iv, cystometric parameters
Experimental: Cystometry investigations were carried out on fresh female Sprague-Dawley rats according to the method of Ishizuka et. al. ((1997), Naunyn-Schmiedeberg's Arch. Pharmacol. 355: 787-793). Three days after implantation of bladder and venous catheters the animals were investigated in the conscious state while freely moving. The bladder catheter was connected to a pressure gauge and an injection pump. The animals were placed in metabolic cages that enable the volume of urine to be measured. Physiological saline solution was infused (10 ml/hour) into the emptied bladder and the bladder pressure and volume of urine were continuously recorded. After a stabilisation phase a 20-minute phase was recorded that was characterised by normal, reproducible micturition cycles. The following parameters among others were measured: • threshold pressure TP, bladder pressure immediately before micturition, • bladder capacity BC, residual volume after prior micturition plus volume of infused solution during the filling phase, • intercontraction interval ICI, i.e. the time interval between consecutive micturition.
An increase in the threshold pressure (TP) indicates an important therapeutic effect in one of the medical conditions covered by the invention. Also, the intercontraction interval (ICI) is an important parameter for measuring the physiological effectiveness of a substance in the treatment of urinary incontinence, as is the bladder capacity (BC). In this connection, on account of the widely differing causes of the symptoms of these disease patterns it is not necessary to influence positively all three parameters in order for a medicament to be effective.
After recording three reproducible micturition cycles to provide a baseline value, the test substances 1 (1.0 mg/kg), 2 (0.1; 0.3 and 0.5 mg/kg), 21 (0.5 mg/kg) and 7 (0.3 mg/kg) in a vehicle comprising 0.9% NaCl were applied intravenously and the effect on the cystometric parameters was recorded at 90 to 120 minutes. In the effect maximum the mean value of 3 micturition cycles was determined and recorded as a percentage change compared to the baseline value (Table 1).

[1] = 0.3 mg/kg iv, effect maximum, mean of 3 micturition cycles
[2] = 0.5 mg/kg iv, effect maximum, mean of 3 micturition cycles

CC[C@](O)(c1cccc(OC)c1)[C@H](C)CN(C)C.Cl (racemic) [Compound 1, (2RS,3RS)-1-dimethylamino-3-(3-methoxyphenyl)-2-methylpentan-3-ol, hydrochloride]
BC Bladder Capacity (change compared to the baseline value) (1.0 mg/kg iv, effect maximum, mean of 3 micturition cycles): +31%**

CCC(O)(c1cccc(O)c1)C(C)CN(C)C.Cl (racemic) [Compound 7, (2RS,3RS)-3-(3-dimethylamino-1-ethyl-1-hydroxy-2-methylpropyl)-phenol, hydrochloride]
BC Bladder Capacity (change compared to the baseline value) [1]: +32%** | ICI Inter-Contraction Interval (change compared to the baseline value) [1]: +2%*

CC[C@](O)(c1cccc(OC)c1)[C@H](C)CN(C)C.Cl [Compound 2, (+)-(2R,3R)-1-dimethylamino-3-(3-methoxyphenyl)-2-methylpentan-3-ol, hydrochloride]
BC Bladder Capacity (change compared to the baseline value) (0.1 mg/kg iv, effect maximum, mean of 3 micturition cycles): +7.8%** | BC Bladder Capacity (change compared to the baseline value) [1]: +33%** | BC Bladder Capacity (change compared to the baseline value) [2]: +20.6%** | effect on the bladder regulation (in words): very effective

CC[C@@](O)(c1cccc(OC)c1)[C@@H](C)CN(C)C.Cl [Compound 21, (−)-(2S,3S)-1-dimethylamino-3-(3-methoxyphenyl)-2-methylpentan-3-ol, hydrochloride]
BC Bladder Capacity (change compared to the baseline value) [2]: +3%** | TP Threshold Pressure (change compared to the baseline value) [2]: −1.1%** | effect on the bladder regulation (in words): does not exhibit such a marked effect
